From publication PMC6009956, “Design, synthesis and biological activity of N^4-phenylsubstituted-7H-pyrrolo[2,3-d]pyrimidin-4-amines as dual inhibitors of aurora kinase A and epidermal growth factor receptor kinase” (Journal of Enzyme Inhibition and Medicinal Chemistry, 2017)
Like-named read-outs stand apart in the source and are kept apart here.

Assays:
aurora A kinase (AURKA) = molecular target: T1, aurora A kinase (AURKA) (Homo sapiens, UniProt O14965); test: ADP-Glo kinase assay, Aurora A; type: biochemical
T1 construct: purchased BPS Bioscience (assay run externally by the vendor)
T1 sequence (O14965 1-403): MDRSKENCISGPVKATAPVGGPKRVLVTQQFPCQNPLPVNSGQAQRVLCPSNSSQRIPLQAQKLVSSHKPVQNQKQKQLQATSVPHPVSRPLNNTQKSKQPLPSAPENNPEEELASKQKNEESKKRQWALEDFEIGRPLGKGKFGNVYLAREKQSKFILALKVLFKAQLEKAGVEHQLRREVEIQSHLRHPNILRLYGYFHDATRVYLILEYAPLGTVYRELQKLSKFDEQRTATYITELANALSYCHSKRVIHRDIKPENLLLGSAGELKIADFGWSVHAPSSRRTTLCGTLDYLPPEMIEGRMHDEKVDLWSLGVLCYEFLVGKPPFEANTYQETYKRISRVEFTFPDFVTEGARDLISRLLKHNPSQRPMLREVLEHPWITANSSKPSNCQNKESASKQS

EGFR = EGFR (Homo sapiens, UniProt P00533); test: ADP-Glo kinase assay, EGFR; type: biochemical; parameters: purchased BPS Bioscience (assay run externally by the vendor)
EGFR, sequence (P00533 25-1210): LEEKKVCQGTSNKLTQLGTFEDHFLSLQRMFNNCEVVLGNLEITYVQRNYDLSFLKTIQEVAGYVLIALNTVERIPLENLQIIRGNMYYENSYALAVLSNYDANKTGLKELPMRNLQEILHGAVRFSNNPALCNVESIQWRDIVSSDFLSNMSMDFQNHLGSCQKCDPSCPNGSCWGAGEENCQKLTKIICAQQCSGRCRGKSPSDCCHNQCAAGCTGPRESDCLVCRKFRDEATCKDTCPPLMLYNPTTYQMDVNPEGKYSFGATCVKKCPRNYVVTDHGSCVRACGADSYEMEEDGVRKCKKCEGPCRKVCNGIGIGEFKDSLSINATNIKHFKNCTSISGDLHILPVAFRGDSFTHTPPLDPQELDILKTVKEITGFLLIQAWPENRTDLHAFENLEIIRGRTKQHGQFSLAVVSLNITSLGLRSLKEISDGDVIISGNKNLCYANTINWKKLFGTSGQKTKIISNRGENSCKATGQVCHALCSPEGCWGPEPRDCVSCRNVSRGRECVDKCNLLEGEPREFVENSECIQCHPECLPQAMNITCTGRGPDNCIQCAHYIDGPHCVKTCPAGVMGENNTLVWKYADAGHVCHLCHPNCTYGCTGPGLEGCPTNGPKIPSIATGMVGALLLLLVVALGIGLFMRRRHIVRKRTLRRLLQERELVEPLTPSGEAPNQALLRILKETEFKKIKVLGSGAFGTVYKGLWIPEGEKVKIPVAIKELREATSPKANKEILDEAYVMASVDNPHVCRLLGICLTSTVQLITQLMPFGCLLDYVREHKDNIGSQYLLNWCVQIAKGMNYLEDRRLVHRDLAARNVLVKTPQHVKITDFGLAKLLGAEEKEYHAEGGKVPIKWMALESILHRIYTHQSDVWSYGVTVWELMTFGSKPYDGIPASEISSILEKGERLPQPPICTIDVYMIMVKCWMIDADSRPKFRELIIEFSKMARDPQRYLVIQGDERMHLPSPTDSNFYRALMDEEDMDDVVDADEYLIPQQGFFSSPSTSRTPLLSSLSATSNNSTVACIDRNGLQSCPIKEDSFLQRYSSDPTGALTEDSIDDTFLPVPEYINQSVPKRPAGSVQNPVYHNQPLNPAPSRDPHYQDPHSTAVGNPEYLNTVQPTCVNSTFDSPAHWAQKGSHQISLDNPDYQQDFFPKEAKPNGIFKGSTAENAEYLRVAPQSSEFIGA

With `Clc1ccc(Nc2ncnc3[nH]ccc23)cc1` [Compound 4, N^4-(4-chlorophenyl)-7H-pyrrolo[2,3-d]pyrimidine-4-amine] the IC50 (aurora A kinase (AURKA); 10 µM ATP, triplicate, read-out: AURKA IC50 ± SD) was 5.15 ± 0.37 µM, the IC50 (aurora A kinase (AURKA); 10 µM ATP/0.2 mg/ml Kemptide, read-out: Aurora A IC50 (dose-response curve, supplement)) was 5.2 µM and the “Aurora A % Activity Set1” value (aurora A kinase (AURKA); Log[nM] 0) was 98%. For the same compound, the “Aurora A % Activity Set2” value (aurora A kinase (AURKA); Log[nM] 0) was 101%, the “Aurora A % Activity Set3” value (aurora A kinase (AURKA); Log[nM] 0) was 97% and the “Aurora A % Activity Set1” value (aurora A kinase (AURKA); Log[nM] 1.0) was 99%. For the same compound, the “Aurora A % Activity Set2” value (aurora A kinase (AURKA); Log[nM] 1.0) was 98%, the “Aurora A % Activity Set3” value (aurora A kinase (AURKA); Log[nM] 1.0) was 100% and the “Aurora A % Activity Set1” value (aurora A kinase (AURKA); Log[nM] 1.5) was 104%. The “Aurora A % Activity Set2” value (aurora A kinase (AURKA); Log[nM] 1.5) was 108%, the “Aurora A % Activity Set3” value (aurora A kinase (AURKA); Log[nM] 1.5) was 102% and the “Aurora A % Activity Set1” value (aurora A kinase (AURKA); Log[nM] 2.0) was 105%. For the same compound, the “Aurora A % Activity Set2” value (aurora A kinase (AURKA); Log[nM] 2.0) was 107%, the “Aurora A % Activity Set3” value (aurora A kinase (AURKA); Log[nM] 2.0) was 104% and the “Aurora A % Activity Set1” value (aurora A kinase (AURKA); Log[nM] 2.5) was 103%. The “Aurora A % Activity Set2” value (aurora A kinase (AURKA); Log[nM] 2.5) was 99%, the “Aurora A % Activity Set3” value (aurora A kinase (AURKA); Log[nM] 2.5) was 101% and the “Aurora A % Activity Set1” value (aurora A kinase (AURKA); Log[nM] 3.0) was 88%. The “Aurora A % Activity Set2” value (aurora A kinase (AURKA); Log[nM] 3.0) was 93%, the “Aurora A % Activity Set3” value (aurora A kinase (AURKA); Log[nM] 3.0) was 86% and the “Aurora A % Activity Set1” value (aurora A kinase (AURKA); Log[nM] 3.5) was 66%. The “Aurora A % Activity Set2” value (aurora A kinase (AURKA); Log[nM] 3.5) was 69%, the “Aurora A % Activity Set3” value (aurora A kinase (AURKA); Log[nM] 3.5) was 68% and the “Aurora A % Activity Set1” value (aurora A kinase (AURKA); Log[nM] 4.0) was 25%. The “Aurora A % Activity Set2” value (aurora A kinase (AURKA); Log[nM] 4.0) was 28%, the “Aurora A % Activity Set3” value (aurora A kinase (AURKA); Log[nM] 4.0) was 25% and the “Aurora A % Activity Set1” value (aurora A kinase (AURKA); Log[nM] 4.5) was 11%. The “Aurora A % Activity Set2” value (aurora A kinase (AURKA); Log[nM] 4.5) was 11%, the “Aurora A % Activity Set3” value (aurora A kinase (AURKA); Log[nM] 4.5) was 11% and the “Aurora A % Activity Set1” value (aurora A kinase (AURKA); Log[nM] 5.0) was 9%. The “Aurora A % Activity Set2” value (aurora A kinase (AURKA); Log[nM] 5.0) was 10%, the “Aurora A % Activity Set3” value (aurora A kinase (AURKA); Log[nM] 5.0) was 9% and the IC50 (EGFR; 10 µM ATP, triplicate, read-out: EGFR IC50 ± SD) was 0.0849 ± 0.0159 µM. For the same compound, the IC50 (EGFR; 10 µM ATP/0.2 mg/ml Poly-Glu-Tyr, read-out: EGFR IC50 (dose-response curve, supplement)) was 0.0845 µM, the “EGFR % Activity Set1” value (EGFR; Log[nM] 0) was 102% and the “EGFR % Activity Set2” value (EGFR; Log[nM] 0) was 96%. For the same compound, the “EGFR % Activity Set3” value (EGFR; Log[nM] 0) was 97%, the “EGFR % Activity Set1” value (EGFR; Log[nM] 1.0) was 102% and the “EGFR % Activity Set2” value (EGFR; Log[nM] 1.0) was 97%. The “EGFR % Activity Set3” value (EGFR; Log[nM] 1.0) was 96%, the “EGFR % Activity Set1” value (EGFR; Log[nM] 1.5) was 65% and the “EGFR % Activity Set2” value (EGFR; Log[nM] 1.5) was 61%. The “EGFR % Activity Set3” value (EGFR; Log[nM] 1.5) was 64%, the “EGFR % Activity Set1” value (EGFR; Log[nM] 2.0) was 50% and the “EGFR % Activity Set2” value (EGFR; Log[nM] 2.0) was 45%. The “EGFR % Activity Set3” value (EGFR; Log[nM] 2.0) was 52%, the “EGFR % Activity Set1” value (EGFR; Log[nM] 2.5) was 19% and the “EGFR % Activity Set2” value (EGFR; Log[nM] 2.5) was 19%. For the same compound, the “EGFR % Activity Set3” value (EGFR; Log[nM] 2.5) was 22%, the “EGFR % Activity Set1” value (EGFR; Log[nM] 3.0) was 10% and the “EGFR % Activity Set2” value (EGFR; Log[nM] 3.0) was 10%. For the same compound, the “EGFR % Activity Set3” value (EGFR; Log[nM] 3.0) was 12%, the “EGFR % Activity Set1” value (EGFR; Log[nM] 3.5) was 4% and the “EGFR % Activity Set2” value (EGFR; Log[nM] 3.5) was 4%. The “EGFR % Activity Set3” value (EGFR; Log[nM] 3.5) was 4%, the “EGFR % Activity Set1” value (EGFR; Log[nM] 4.0) was 2% and the “EGFR % Activity Set2” value (EGFR; Log[nM] 4.0) was 2%. The “EGFR % Activity Set3” value (EGFR; Log[nM] 4.0) was 2%, the “EGFR % Activity Set1” value (EGFR; Log[nM] 4.5) was 1% and the “EGFR % Activity Set2” value (EGFR; Log[nM] 4.5) was 1%. For the same compound, the “EGFR % Activity Set3” value (EGFR; Log[nM] 4.5) was 1%, the “EGFR % Activity Set1” value (EGFR; Log[nM] 5.0) was 1% and the “EGFR % Activity Set2” value (EGFR; Log[nM] 5.0) was 1%. For the same compound, the “EGFR % Activity Set3” value (EGFR; Log[nM] 5.0) was 1%.
